Reference: US20240252488A1 (KOREA RESEARCH INSTITUTE OF CHEMICAL TECHNOLOGY, priority 2020, published 2024)

What was measured:
[1] = target: T1, MLKL (Homo sapiens, UniProt Q8NB16); experiment: Measurement of binding affinity with MLKL receptor (competitive binding assay, Kd); set-up: made in house; host or cells: HEK 293 cell line (T7 phage in E. coli BL21-derived host is also described)
T1 sequence (Q8NB16 1-471): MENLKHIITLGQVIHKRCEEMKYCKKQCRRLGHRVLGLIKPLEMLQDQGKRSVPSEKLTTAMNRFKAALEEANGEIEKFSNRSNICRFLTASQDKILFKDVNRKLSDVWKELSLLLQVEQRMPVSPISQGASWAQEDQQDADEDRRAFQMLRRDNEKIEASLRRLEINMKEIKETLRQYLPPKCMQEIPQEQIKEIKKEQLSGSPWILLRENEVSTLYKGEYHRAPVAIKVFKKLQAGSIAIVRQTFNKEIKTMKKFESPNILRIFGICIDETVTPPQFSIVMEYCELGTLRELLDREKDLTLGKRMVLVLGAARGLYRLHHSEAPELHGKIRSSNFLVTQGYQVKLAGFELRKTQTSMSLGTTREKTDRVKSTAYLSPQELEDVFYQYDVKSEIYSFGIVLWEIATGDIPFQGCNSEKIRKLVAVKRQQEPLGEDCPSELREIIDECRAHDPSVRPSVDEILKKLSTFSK
Summary of the method: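 Kd from an immobilized-ligand competition format: the DNA-tagged kinase from HEK 293 expression is eluted and quantified by qPCR. Compounds added from 111× DMSO stocks, final DMSO 0.9%.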

[2] = target: T1, MLKL; experiment: MLKL degradation assay in HepG2 cell line (western blot); type: cell-based; set-up: endogenous in cells; host or cells: HepG2 or HaCaT; settings: cell line not given; for Degradation assay (Degradation %) 1 μM: compound 1 μM; for Degradation assay (Degradation %) 10 μM: compound 10 μM
Summary of the method: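 Western blot chemiluminescence of MLKL in equal-protein lysates (10-15 μg, BCA-adjusted). Before lysis, HepG2 cells were exposed to 1 or 10 μM (final) test compound for 20-24 h at 37 °C.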

[3] = tested on: FADD−/− Jurkat cells; experiment: Necroptosis inhibition assay, TNF-α-induced necroptosis (CellTiter-Glo 2.0); type: cell-based, human; settings: TNF-α 15 ng/mL; for Necroptosis inhibition assay (Rescue %) 1 μM: compound 1 μM; for Necroptosis inhibition assay (Rescue %) 10 μM: compound 10 μM
Summary of the method: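 Necroptosis induced by 15 ng/mL TNF-α (final) for 20–24 h at 37 °C, after a 30 min room-temperature pretreatment of FADD-deficient Jurkat cells with 0.1, 1 or 10 μM compound. ATP-based luminescence gave viability, from which inhibition rate and cytotoxicity were derived.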

Kd [1] [nM] | Degradation assay (Degradation %) 1 μM [2] [%] | Degradation assay (Degradation %) 10 μM [2] [%] | Compound | Necroptosis inhibition assay (Rescue %) 1 μM [3] [%] | Necroptosis inhibition assay (Rescue %) 10 μM [3] [%]
9.2 | 41.81 | 83.53 | Nc1ncc(-c2cnn(C3CCN(CCOCCOCCOCCNC(=O)C4CCN(c5ccc6c(c5)C(=O)N(C5CCC(=O)NC5=O)C6=O)CC4)CC3)c2)nc1C(=O)O[C@@H](C(=O)Nc1ccc(F)cc1)c1ccccc1 (stereo partly drawn) [TDH-140, (R)-2-((4-fluorophenyl)amino)-2-oxo-1-phenylethyl 3-amino-6-(1-(1-(1-(1-(2-(2,6-dioxopiperidin-3-yl)-1,3-dioxoisoindolin-5-yl)piperidin-4-yl)-1-oxo-5,8,11-trioxa-2-azatridecan-13-yl)piperidin-4-yl)-1H-pyrazol-4-yl)pyrazine-2-carboxylate] | 21.32 | 81.41
8.1 | 17.47 | 58.93 | Nc1ncc(-c2cnn(C3CCN(CCOCCOCCOCCNC(=O)C4CN(c5cccc6c5C(=O)N(C5CCC(=O)NC5=O)C6=O)C4)CC3)c2)nc1C(=O)O[C@@H](C(=O)Nc1ccc(F)cc1)c1ccccc1 (stereo partly drawn) [TDH-141, (R)-2-((4-fluorophenyl)amino)-2-oxo-1-phenylethyl 3-amino-6-(1-(1-(1-(1-(2-(2,6-dioxopiperidin-3-yl)-1,3-dioxoisoindolin-4-yl)azetidin-3-yl)-1-oxo-5,8,11-trioxa-2-azatridecan-13-yl)piperidin-4-yl)-1H-pyrazol-4-yl)pyrazine-2-carboxylate] | 2.72 | 10.22
4.4 | 19.42 | 53.09 | Nc1ncc(-c2cnn(C3CCN(CCOCCOCCOCCNC(=O)C4CN(c5ccc6c(c5)C(=O)N(C5CCC(=O)NC5=O)C6=O)C4)CC3)c2)nc1C(=O)O[C@@H](C(=O)Nc1ccc(F)cc1)c1ccccc1 (stereo partly drawn) [TDH-142, (R)-2-((4-fluorophenyl)amino)-2-oxo-1-phenylethyl 3-amino-6-(1-(1-(1-(1-(2-(2,6-dioxopiperidin-3-yl)-1,3-dioxoisoindolin-5-yl)azetidin-3-yl)-1-oxo-5,8,11-trioxa-2-azatridecan-13-yl)piperidin-4-yl)-1H-pyrazol-4-yl)pyrazine-2-carboxylate] | 12.69 | 50.51

Further lines, the compound ahead of its results:

Compound | Kd [1] [nM] | Degradation assay (Degradation %) 1 μM [2] [%] | Degradation assay (Degradation %) 10 μM [2] [%] | Necroptosis inhibition assay (Rescue %) 1 μM [3] [%] | Necroptosis inhibition assay (Rescue %) 10 μM [3] [%]
Nc1ncc(-c2cnn(C3CCN(CCOCCOCCOCCNC(=O)CNc4cccc5c4C(=O)N(C4CCC(=O)NC4=O)C5=O)CC3)c2)nc1C(=O)O[C@@H](C(=O)Nc1ccc(F)cc1)c1ccccc1 (stereo partly drawn) [TDH-143, (R)-2-((4-fluorophenyl)amino)-2-oxo-1-phenylethyl 3-amino-6-(1-(1-(1-((2-(2,6-dioxopiperidin-3-yl)-1,3-dioxoisoindolin-4-yl)amino)-2-oxo-6,9,12-trioxa-3-azatetradecan-14-yl)piperidin-4-yl)-1H-pyrazol-4-yl)pyrazine-2-carboxylate] | 4.5 | 64 | 85.29 | 20.58 | 64.35
Nc1ncc(-c2cnn(C3CCN(CCOCCOCCOCCNC(=O)CNc4ccc5c(c4)C(=O)N(C4CCC(=O)NC4=O)C5=O)CC3)c2)nc1C(=O)O[C@@H](C(=O)Nc1ccc(F)cc1)c1ccccc1 (stereo partly drawn) [TDH-144, (R)-2-((4-fluorophenyl)amino)-2-oxo-1-phenylethyl 3-amino-6-(1-(1-(1-((2-(2,6-dioxopiperidin-3-yl)-1,3-dioxoisoindolin-5-yl)amino)-2-oxo-6,9,12-trioxa-3-azatetradecan-14-yl)piperidin-4-yl)-1H-pyrazol-4-yl)pyrazine-2-carboxylate] | 2.5 | 58.79 | 86.28 | 15.23 | 68.71
Nc1ncc(-c2cnn(C3CCN(CC4CCN(C(=O)C5CN(c6ccc7c(c6)C(=O)N(C6CCC(=O)NC6=O)C7=O)C5)CC4)CC3)c2)nc1C(=O)O[C@@H](C(=O)Nc1ccc(F)cc1)c1ccccc1 (stereo partly drawn) [TDH-145, (R)-2-((4-fluorophenyl)amino)-2-oxo-1-phenylethyl 3-amino-6-(1-(1-((1-(1-(2-(2,6-dioxopiperidin-3-yl)-1,3-dioxoisoindolin-5-yl)azetidine-3-carbonyl)piperidin-4-yl)methyl)piperidin-4-yl)-1H-pyrazol-4-yl)pyrazine-2-carboxylate] | 2.5 | 36.97 | 55.66 | 51.47 | 40.41
Nc1ncc(-c2cnn(C3CCN(CC4CCN(C(=O)C5CCN(c6cccc7c6C(=O)N(C6CCC(=O)NC6=O)C7=O)CC5)CC4)CC3)c2)nc1C(=O)O[C@@H](C(=O)Nc1ccc(F)cc1)c1ccccc1 (stereo partly drawn) [TDH-146, (R)-2-((4-fluorophenyl)amino)-2-oxo-1-phenylethyl 3-amino-6-(1-(1-((1-(1-(2-(2,6-dioxopiperidin-3-yl)-1,3-dioxoisoindolin-4-yl)piperidine-4-carbonyl)piperidin-4-yl)methyl)piperidin-4-yl)-1H-pyrazol-4-yl)pyrazine-2-carboxylate] | 5.4 | 65.04 | 60.65 | 42.2 | 9.61
Nc1ncc(-c2cnn(C3CCN(CC4CCN(C(=O)C5CCN(c6ccc7c(c6)C(=O)N(C6CCC(=O)NC6=O)C7=O)CC5)CC4)CC3)c2)nc1C(=O)O[C@@H](C(=O)Nc1ccc(F)cc1)c1ccccc1 (stereo partly drawn) [TDH-147, (R)-2-((4-fluorophenyl)amino)-2-oxo-1-phenylethyl 3-amino-6-(1-(1-((1-(1-(2-(2,6-dioxopiperidin-3-yl)-1,3-dioxoisoindolin-5-yl)piperidine-4-carbonyl)piperidin-4-yl)methyl)piperidin-4-yl)-1H-pyrazol-4-yl)pyrazine-2-carboxylate] | 24 | 38.91 | 60.57 | 84.3 | 45.37
Nc1ncc(-c2cnn(C3CCN(CC4CCN(C(=O)COc5cccc6c5C(=O)N(C5CCC(=O)NC5=O)C6=O)CC4)CC3)c2)nc1C(=O)O[C@@H](C(=O)Nc1ccc(F)cc1)c1ccccc1 (stereo partly drawn) [TDH-148, (R)-2-((4-fluorophenyl)amino)-2-oxo-1-phenylethyl 3-amino-6-(1-(1-((1-(2-((2-(2,6-dioxopiperidin-3-yl)-1,3-dioxoisoindolin-4-yl)oxy)acetyl)piperidin-4-yl)methyl)piperidin-4-yl)-1H-pyrazol-4-yl)pyrazine-2-carboxylate] | 1.4 | 46.29 | 48.24 | 54.25 | 15.48
Nc1ncc(-c2cnn(C3CCN(CC4CCN(c5cccc6c5C(=O)N(C5CCC(=O)NC5=O)C6=O)CC4)CC3)c2)nc1C(=O)O[C@@H](C(=O)Nc1ccc(F)cc1)c1ccccc1 (stereo partly drawn) [TDH-149, (R)-2-((4-fluorophenyl)amino)-2-oxo-1-phenylethyl 3-amino-6-(1-(1-((1-(2-(2,6-dioxopiperidin-3-yl)-1,3-dioxoisoindolin-4-yl)piperidin-4-yl)methyl)piperidin-4-yl)-1H-pyrazol-4-yl)pyrazine-2-carboxylate] | 40 | 48.51 | 77.36 | 82.1 | 55.19
Nc1ncc(-c2cnn(C3CCN(CC4CCN(c5ccc6c(c5)C(=O)N(C5CCC(=O)NC5=O)C6=O)CC4)CC3)c2)nc1C(=O)O[C@@H](C(=O)Nc1ccc(F)cc1)c1ccccc1 (stereo partly drawn) [TDH-150, (R)-2-((4-fluorophenyl)amino)-2-oxo-1-phenylethyl 3-amino-6-(1-(1-((1-(2-(2,6-dioxopiperidin-3-yl)-1,3-dioxoisoindolin-5-yl)piperidin-4-yl)methyl)piperidin-4-yl)-1H-pyrazol-4-yl)pyrazine-2-carboxylate] | 43 | 66.97 | 53.7 | 53.91 | 39.57
